What was measured:
FXR [1] = target: T1, FXR (Homo sapiens, UniProt Q96RI1); assay: In Vitro FXR Assay (PGL3), luciferase reporter in transfected CV-1 cells; assay type: cell-based; parameters: plasmids XPD90Gal pCMXhFXRfl, pCMXhRXRfl+PGL3-ECRE*6-luc+CMX-YFP; expressed in transfected cells; host or cells: CV-1 cells; conditions: CV-1 cells transfected with hFXR, hRXR, PGL3-ECRE*6-luc; 18 hrs incubation; luminescence
T1 sequence (Q96RI1 1-486): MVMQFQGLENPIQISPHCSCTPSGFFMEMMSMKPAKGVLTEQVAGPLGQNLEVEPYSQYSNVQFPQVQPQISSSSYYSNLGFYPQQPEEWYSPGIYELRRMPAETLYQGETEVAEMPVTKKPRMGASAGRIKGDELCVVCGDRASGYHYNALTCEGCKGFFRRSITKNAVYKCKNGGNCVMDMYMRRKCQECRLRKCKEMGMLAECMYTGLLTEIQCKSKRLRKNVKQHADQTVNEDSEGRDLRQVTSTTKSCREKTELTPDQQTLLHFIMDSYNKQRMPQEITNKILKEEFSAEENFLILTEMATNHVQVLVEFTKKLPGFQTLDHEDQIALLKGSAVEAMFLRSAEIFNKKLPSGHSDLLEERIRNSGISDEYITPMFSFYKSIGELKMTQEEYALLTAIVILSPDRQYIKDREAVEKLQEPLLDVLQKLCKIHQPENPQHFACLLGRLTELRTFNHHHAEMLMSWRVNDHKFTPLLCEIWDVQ
T1 sequence (P19793 1-462 partner): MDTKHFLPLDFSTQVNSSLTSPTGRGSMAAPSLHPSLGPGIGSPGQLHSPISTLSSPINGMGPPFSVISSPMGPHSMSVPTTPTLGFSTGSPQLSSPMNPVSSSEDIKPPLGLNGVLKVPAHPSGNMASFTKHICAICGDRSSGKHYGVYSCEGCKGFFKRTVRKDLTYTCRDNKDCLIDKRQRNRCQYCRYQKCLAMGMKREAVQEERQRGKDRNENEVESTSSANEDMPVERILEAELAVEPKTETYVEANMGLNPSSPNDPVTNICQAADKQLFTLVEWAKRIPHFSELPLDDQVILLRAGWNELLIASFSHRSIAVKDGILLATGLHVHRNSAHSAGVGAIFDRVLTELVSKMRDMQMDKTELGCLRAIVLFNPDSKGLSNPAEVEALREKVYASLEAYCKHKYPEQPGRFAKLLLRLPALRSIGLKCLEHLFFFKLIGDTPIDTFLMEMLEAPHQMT
Experimental: Example B-1: In Vitro FXR Assay (PGL3)
CV-1 cells were seeded at a density of 2,000,000 cells in a T175 flask with DMEM+10% charcoal double-stripped FBS and incubated at 37° C. in a 5% CO2 for 18 h (0/N).
After 18 h of incubation, the medium in the T175 flask was changed with fresh DMEM+10% charcoal super-stripped serum.
To prepare the transfection reaction mixture, the transfection reagent (X-tremeGENE HP from Roche, Cat #06 366 236 001) was added in to a 1.5 mL microcentrifuge tube labelled “A” at a ratio of 1:3 (DNA in μg: transfection reagent in μL). OptiMEM medium (Life Technologies, Cat #31985-062) was added accordingly to provide a total volume of 1 mL. The transfection reaction mixture was then briefly vortexed and incubated at room temperature for 5 minutes.
In a separate 1.5 mL microcentrifuge tube labelled “B”, 100 μL OptiMEM and plasmids XPD90Gal pCMXhFXRfl, pCMXhRXRfl+PGL3-ECRE*6-luc+CMX-YFP in the ratio 2 μg: 2 μg:18 μg:3 μg were added. This microcentrifuge tube “B” was then briefly vortexed and incubated at room temperature for 5 minutes.
The total volume in tube labelled “A” was then transferred in to tube labelled “B.” The mixture was then briefly vortexed and the transfection:DNA complex was then incubated for about 15-20 minutes at room temperature.
Following incubation, the transfection reagent/DNA mixture complex was then added to cells in the T175 flask and the cells were incubated at […] (0/N) at 37° C. in 5% CO2.
In a 96 well plate, a half logarithmic serial dilution was prepared. OptiMEM was used as the diluent. Using any of one of the compounds described herein, a compound stock solution of 10 mM was prepared. An initial 1:100 dilution was made into the first well for a final concentration of 100 μM. The final concentrations in the 96-well plate was prepared by using a multichannel pipette to transfer 5 μL of the diluted compound to 384-well plate in quadruplicate.
Cells in T175 flask were trypsinized and cells were resuspending in 40 mL phenol red free DMEM+10% charcoal super-stripped FBS. Typically, one T175 flask was sufficient to seed two 384 well plates. CV-1 cells were seeded at 45 μL cell suspension/well using a multi-channel pipet or a 384 multidrop dispenser. The cells were then incubated for 18 hrs, overnight.
After removing the plates from the incubator, the medium was flicked out of plate and 384 well plate was turned upside down onto paper towel. The remaining medium was gently tapped out. 15 μL lysis buffer was then added to each well using a multichannel pipet or a 384 well multi-drop dispenser. After incubation for 10 minutes at room temperature on shaker, 30 μL Luciferase buffer was added to each well. Luminescence counts were taken immediately using the Perkin Elmer Envision.
The ability of the compounds disclosed herein to […] FXR activity was quantified and the respective EC50 value was determined. Fex=fexaramine.

FXR [2] = target: T1, FXR; assay: In Vitro FXR Assay (TK), luciferase reporter in transfected CV-1 cells; assay type: cell-based; parameters: expressed in transfected cells; host or cells: CV-1 cells; conditions: CV-1 cells transfected with hFXR, hRXR, TK-ECRE-luc; 18 hrs incubation; luminescence; maximum efficacy <25% of Fexaramine control also classified '+'
Experimental: Example B-2: In Vitro FXR Assay (TK)
CV-1 cells were seeded at a density of 2,000,000 cells in a T175 flask with DMEM+10% charcoal double-stripped FBS and incubated at 37° C. in 5% CO2 for 18 h (0/N).
After 18 h of incubation, the medium in the T175 flask was changed with fresh DMEM+10% charcoal super-stripped serum. In a polypropylene tube, 2500 μL OptiMEM (Life Technologies, Cat #31985-062) was combined with expression plasmids for hFXR, hRXR, TK-ECRE-luc and pCMX-YFP. The tube was then briefly vortexed and incubated at room temperature for 5 minutes. Transfection reagent (X-tremeGENE HP from Roche, Cat #06 366 236 001) was added to the OptiMEM/plasmid mixture vortexed and incubated at room temperature for 20 minutes. Following incubation, the transfection reagent/DNA mixture complex was added to cells in the T175 flask and the cells were incubated at 37° C. in 5% CO2 for 18 h (O/N).
Compounds were serially diluted in DMSO and added to transfected CV-1 cells. The cells were then incubated for 18 hrs. The next day cells were lysed and examined for luminescence.

COC(=O)/C=C/c1cccc(N(CC2CCC(c3ccc(Cl)cc3)CC2)C(=O)C2CCCCC2)c1 (centres unmarked) [Compound 7, (E)-Methyl 3-(3-(N-((4-(4-chlorophenyl)cyclohexyl)methyl)cyclohexanecarboxamido)phenyl)acrylate]
Cmpd/Fex (ratio of the EC50 for the test compound relative to the EC50 of the Fexaramine control) (FXR [1]): +++ (‘+++’ means Cmpd/Fex <10) | EC50 (FXR [2]): ≤ 1 µM

— patent US20190062277A1, “FARNESOID X RECEPTOR AGONISTS AND USES THEREOF” (Metacrine, Inc., priority 2015, published 2019)
